Assay results from PMC9775191, “A Subset Screen of the Compounds Australia Scaffold Library Identifies 7-Acylaminodibenzoxazepinones as Potent and Selective Hits for Anti-Giardia Drug Discovery” (Biomedicines, 2022).

system: Escherichia coli (ATCC 25922); experiment: Anti-bacterial activity assay; type: cell-based; settings: Escherichia coli, ATCC25922, 50 µM; read-out: Bacterial Inhibition E. coli
Experimental: (§1) The activity of compounds against methicillin resistant Staphylococcus aureus (ATCC 43300), Escherichia coli (ATCC 25922), Acinetobacter baumannii (ATCC 19606) and Klebsiella pneumoniae (ATCC 700603) was assessed at 50 µM in duplicate as previously described. In brief, mid-log phase bacteria cultures were added to 384-well microtiter plate wells containing compound to final cell density of 5 × 10^5 CFU/mL in 50 µL. Plates were then covered and incubated at 37 °C for 18 h without shaking. Inhibition of bacterial growth was determined by measuring absorbance at 600 nm (Tecan M1000 Pro monochromator plate reader) and calculating percentage growth inhibition relative to the negative media and bacteria without inhibitors. Vancomycin hydrochloride (Sigma-Aldrich an affiliate of Merck KGaA, Darmstadt, Germany, #861987) and colistin sulfate (Sigma-Aldrich an affiliate of Merck KGaA, Darmstadt, Germany, C4461) were on each plate as positive controls for Gram-positive (S. aureus) and Gram-negative (E. coli, A. baumannii and K. pneumoniae) bacteria, respectively.

| Structure (SMILES) | inhibition at 50 µM [%] |
| --- | --- |
| O=[N+]([O-])c1ccc(N2CCC(c3ncc[nH]3)CC2)c2ccncc12 [SN00772378, O=N(=O)c1ccc(N2CCC(CC2)c2ncc[nH]2)c2ccncc12] | 5.55 |
| COc1ccc(-c2csc(C3=C(N)N(CC(C)(C)CN(C)C)CC3=O)n2)cc1OC [SN00776314, COc1cc(ccc1OC)c1csc(n1)C1=C(N)N(CC1=O)CC(C)(C)CN(C)C] | 5.58 |

system: Acinetobacter baumannii (ATCC 19606); experiment: Anti-bacterial activity assay; type: cell-based; settings: ATCC19606, 50 µM
Experimental: as §1

| Structure (SMILES) | inhibition at 50 µM [%] |
| --- | --- |
| O=[N+]([O-])c1ccc(N2CCC(c3ncc[nH]3)CC2)c2ccncc12 [SN00772378, O=N(=O)c1ccc(N2CCC(CC2)c2ncc[nH]2)c2ccncc12] | 4.73 |
| COc1ccc(-c2csc(C3=C(N)N(CC(C)(C)CN(C)C)CC3=O)n2)cc1OC [SN00776314, COc1cc(ccc1OC)c1csc(n1)C1=C(N)N(CC1=O)CC(C)(C)CN(C)C] | 9.53 |

system: Klebsiella pneumoniae (ATCC 700603); experiment: Anti-bacterial activity assay; type: cell-based; settings: ATCC700603, 50 µM, read-out: Bacterial Inhibition K. pneumoniae
Experimental: as §1

| Structure (SMILES) | inhibition at 50 µM [%] |
| --- | --- |
| O=[N+]([O-])c1ccc(N2CCC(c3ncc[nH]3)CC2)c2ccncc12 [SN00772378, O=N(=O)c1ccc(N2CCC(CC2)c2ncc[nH]2)c2ccncc12] | 15.6 |
| COc1ccc(-c2csc(C3=C(N)N(CC(C)(C)CN(C)C)CC3=O)n2)cc1OC [SN00776314, COc1cc(ccc1OC)c1csc(n1)C1=C(N)N(CC1=O)CC(C)(C)CN(C)C] | 10.9 |

system: methicillin resistant Staphylococcus aureus (ATCC 43300); experiment: Anti-bacterial activity assay; type: cell-based; settings: Staphylococcus aureus, ATCC43300, 50 µM; read-out: Bacterial Inhibition S. aureus
Experimental: as §1

| Structure (SMILES) | inhibition at 50 µM [%] |
| --- | --- |
| O=[N+]([O-])c1ccc(N2CCC(c3ncc[nH]3)CC2)c2ccncc12 [SN00772378, O=N(=O)c1ccc(N2CCC(CC2)c2ncc[nH]2)c2ccncc12] | 34.4 |
| COc1ccc(-c2csc(C3=C(N)N(CC(C)(C)CN(C)C)CC3=O)n2)cc1OC [SN00776314, COc1cc(ccc1OC)c1csc(n1)C1=C(N)N(CC1=O)CC(C)(C)CN(C)C] | 13.2 |

system: Neonatal foreskin fibroblast (NFF) cells; experiment: Mammalian cell cytotoxicity assay (sulforhodamine B); type: cell-based, human; settings: Homo sapiens, NFF; 20 µM; ±SD
Experimental: The selectivity of compounds of interest was assessed against NFF cells. Assays were performed using sulforhodamine B and included media only, negative (no compound, no DMSO), and vehicle (DMSO) controls as previously described. A chloroquine control plate was included in each assay. […] Repurchased SN00797640 was tested in dose–response from 100 µM against NFF. Selectivity indices (SI) were calculated by dividing mammalian cell IC50 values by G. duodenalis BRIS/91/HEPU/1279 IC50 values.

| Structure (SMILES) | inhibition at 20 µM [%] |
| --- | --- |
| O=[N+]([O-])c1ccc(N2CCC(c3ncc[nH]3)CC2)c2ccncc12 [SN00772378, O=N(=O)c1ccc(N2CCC(CC2)c2ncc[nH]2)c2ccncc12] | 1.2 ± 1 |
| COc1ccc(-c2csc(C3=C(N)N(CC(C)(C)CN(C)C)CC3=O)n2)cc1OC [SN00776314, COc1cc(ccc1OC)c1csc(n1)C1=C(N)N(CC1=O)CC(C)(C)CN(C)C] | 24 ± 26.8 |

same assay, conditions: Table S2; NFF vs 48 h Giardia IC50

| Structure (SMILES) | SI (48h Gd) |
| --- | --- |
| COc1ccc(-c2csc(C3=C(N)N(CC(C)(C)CN(C)C)CC3=O)n2)cc1OC [SN00776314, COc1cc(ccc1OC)c1csc(n1)C1=C(N)N(CC1=O)CC(C)(C)CN(C)C] | > 2 |

system: G. duodenalis BRIS/91/HEPU/1279; experiment: Giardia dose response assay, assemblage B; type: cell-based, Giardia duodenalis; settings: Giardia duodenalis, 24 h, read-out: G. duodenalis IC50 24h, Table S2; 24 h; ±SD; max 10 µM
Experimental: In these assays, compounds were serially diluted (8–12-point doubling dilutions in technical duplicate) in DMSO control media, with all test wells inoculated with parasites (1.5 × 10^4 parasites for BRIS/91/HEPU/1279 and BRIS/91/HEPU/1279m1, or 3 × 10^3 parasites for BRIS/87/HEPU/713). […] All plates were sealed in culture chambers and gassed with 3% O2, 5% CO2 in N2 and incubated at 37 °C for 48 h, with parasites imaged and enumerated at 24 and 48 h. Growth inhibition was calculated as a percentage relative to vehicle controls minus any background as described above and IC50 values were determined using log-linear interpolation as previously described. […] Statistical comparison of IC50 values when required were performed using Student’s t-test.

| Structure (SMILES) | IC50 [µM] |
| --- | --- |
| O=[N+]([O-])c1ccc(N2CCC(c3ncc[nH]3)CC2)c2ccncc12 [SN00772378, O=N(=O)c1ccc(N2CCC(CC2)c2ncc[nH]2)c2ccncc12] | > 10 |
| COc1ccc(-c2csc(C3=C(N)N(CC(C)(C)CN(C)C)CC3=O)n2)cc1OC [SN00776314, COc1cc(ccc1OC)c1csc(n1)C1=C(N)N(CC1=O)CC(C)(C)CN(C)C] | > 10 |

same assay, conditions: Giardia duodenalis, 48 h, Table S2; 48 h; ±SD; max 10 µM; read-out: G. duodenalis IC50 48h

| Structure (SMILES) | IC50 [µM] |
| --- | --- |
| O=[N+]([O-])c1ccc(N2CCC(c3ncc[nH]3)CC2)c2ccncc12 [SN00772378, O=N(=O)c1ccc(N2CCC(CC2)c2ncc[nH]2)c2ccncc12] | 4.79 ± 1.45 |
| COc1ccc(-c2csc(C3=C(N)N(CC(C)(C)CN(C)C)CC3=O)n2)cc1OC [SN00776314, COc1cc(ccc1OC)c1csc(n1)C1=C(N)N(CC1=O)CC(C)(C)CN(C)C] | 9.16 |

same assay, conditions: Giardia duodenalis, read-out: % inhibition @ 10µM 48h (comment); Table S2 comment; 10 µM; 48 h

| Structure (SMILES) | inhibition at 10 µM [%] |
| --- | --- |
| COc1ccc(-c2csc(C3=C(N)N(CC(C)(C)CN(C)C)CC3=O)n2)cc1OC [SN00776314, COc1cc(ccc1OC)c1csc(n1)C1=C(N)N(CC1=O)CC(C)(C)CN(C)C] | 48.3 |

system: G. duodenalis BRIS/91/HEPU/1279; experiment: Primary Giardia screen at 10 µM (live-cell imaging, automated counting); type: cell-based, Giardia duodenalis; settings: Giardia duodenalis, 24 h, first singlicate assay, read-out: % Inhibition n=1 24h
In short: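 Percent growth versus 0.2% DMSO vehicle, background-corrected with media-only wells, is reported at 24 and 48 h from automated live-cell counts. Testing used 10 μM final in a 3% O2 atmosphere, with plate quality checked by Z' factor.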

| Structure (SMILES) | inhibition at 10 µM [%] |
| --- | --- |
| O=[N+]([O-])c1ccc(N2CCC(c3ncc[nH]3)CC2)c2ccncc12 [SN00772378, O=N(=O)c1ccc(N2CCC(CC2)c2ncc[nH]2)c2ccncc12] | 80.4 |
| COc1ccc(-c2csc(C3=C(N)N(CC(C)(C)CN(C)C)CC3=O)n2)cc1OC [SN00776314, COc1cc(ccc1OC)c1csc(n1)C1=C(N)N(CC1=O)CC(C)(C)CN(C)C] | 31.7 |

same assay, conditions: Giardia duodenalis, 24 h, re-assessment, read-out: % Inhibition n=2 24h

| Structure (SMILES) | inhibition at 10 µM [%] |
| --- | --- |
| O=[N+]([O-])c1ccc(N2CCC(c3ncc[nH]3)CC2)c2ccncc12 [SN00772378, O=N(=O)c1ccc(N2CCC(CC2)c2ncc[nH]2)c2ccncc12] | 47.7 |
| COc1ccc(-c2csc(C3=C(N)N(CC(C)(C)CN(C)C)CC3=O)n2)cc1OC [SN00776314, COc1cc(ccc1OC)c1csc(n1)C1=C(N)N(CC1=O)CC(C)(C)CN(C)C] | 16.2 |

same assay, conditions: Giardia duodenalis, 24 h, read-out: Average % Inhibition 24h

| Structure (SMILES) | inhibition at 10 µM [%] |
| --- | --- |
| O=[N+]([O-])c1ccc(N2CCC(c3ncc[nH]3)CC2)c2ccncc12 [SN00772378, O=N(=O)c1ccc(N2CCC(CC2)c2ncc[nH]2)c2ccncc12] | 64 |
| COc1ccc(-c2csc(C3=C(N)N(CC(C)(C)CN(C)C)CC3=O)n2)cc1OC [SN00776314, COc1cc(ccc1OC)c1csc(n1)C1=C(N)N(CC1=O)CC(C)(C)CN(C)C] | 24 |

same assay, conditions: Giardia duodenalis, 48 h, first singlicate assay, read-out: % Inhibition n=1 48h

| Structure (SMILES) | inhibition at 10 µM [%] |
| --- | --- |
| O=[N+]([O-])c1ccc(N2CCC(c3ncc[nH]3)CC2)c2ccncc12 [SN00772378, O=N(=O)c1ccc(N2CCC(CC2)c2ncc[nH]2)c2ccncc12] | 88.7 |
| COc1ccc(-c2csc(C3=C(N)N(CC(C)(C)CN(C)C)CC3=O)n2)cc1OC [SN00776314, COc1cc(ccc1OC)c1csc(n1)C1=C(N)N(CC1=O)CC(C)(C)CN(C)C] | 85.1 |

same assay, conditions: Giardia duodenalis, 48 h, re-assessment, read-out: % Inhibition n=2 48h

| Structure (SMILES) | inhibition at 10 µM [%] |
| --- | --- |
| O=[N+]([O-])c1ccc(N2CCC(c3ncc[nH]3)CC2)c2ccncc12 [SN00772378, O=N(=O)c1ccc(N2CCC(CC2)c2ncc[nH]2)c2ccncc12] | 87.4 |
| COc1ccc(-c2csc(C3=C(N)N(CC(C)(C)CN(C)C)CC3=O)n2)cc1OC [SN00776314, COc1cc(ccc1OC)c1csc(n1)C1=C(N)N(CC1=O)CC(C)(C)CN(C)C] | 68.5 |

same assay, conditions: Giardia duodenalis, 48 h, read-out: Average % Inhibition 48h

| Structure (SMILES) | inhibition at 10 µM [%] |
| --- | --- |
| O=[N+]([O-])c1ccc(N2CCC(c3ncc[nH]3)CC2)c2ccncc12 [SN00772378, O=N(=O)c1ccc(N2CCC(CC2)c2ncc[nH]2)c2ccncc12] | 88 |
| COc1ccc(-c2csc(C3=C(N)N(CC(C)(C)CN(C)C)CC3=O)n2)cc1OC [SN00776314, COc1cc(ccc1OC)c1csc(n1)C1=C(N)N(CC1=O)CC(C)(C)CN(C)C] | 76.8 |
